Assay results as given in patent US20160367623A1, “AGONISTS OF GUANYLATE CYCLASE USEFUL FOR THE TREATMENT OF GASTROINTESTINAL DISORDERS, INFLAMMATION, CANCER AND OTHER DISORDERS” (priority 2015, published 2016).
Bridge positions count the residues as written; N and C are the ends. Ends that are not written are not given here.

Test system: patients with chronic idiopathic constipation (CIC)
Test: Second phase 3 CIC trial: CSBM weekly responders by week
Type: in vivo, human
Details: MRA
Excerpt: Both trials include a two-week pre-treatment baseline period, a 12-week treatment period, and a two-week post-treatment period. The phase 3 CIC program was designed to support regulatory submission in the U. S.
The primary endpoint for both trials is the proportion of durable overall responders (%), which is the current regulatory endpoint required for U.S. approval in CIC. The FDA has defined a durable overall responder as a patient who fulfills both ≧3 complete spontaneous bowel movements (CSBMs) per week plus an increase of ≧1 CSBM from baseline in the same week, for 9 out of the 12 treatment weeks. In addition, the same patient must be an overall responder for at least 3 of the last 4 treatment weeks in order to be considered a durable overall responder.
Patients were selected using Rome 3 criteria modified for CIC and had (1) fewer than 3 defecations per week, (2) loose stools occurring rarely without laxatives, (3) inadequate criteria for irritable bowel syndrome with constipation (IBS-C), and (4) at least two of the following applied to at least 25% of defecations: (a) straining during evacuation, (b) lumpy or hard stools, (c) sensation of anorectal obstruction or blockage. Rome 3 requires patients to fulfill the criteria for the last 3 months with symptom onset at least 6 months prior to diagnosis.

[1] = Post-Treatment Week 13, 3 mg, All Randomized (includes Duplicate Patients)
[2] = Post-Treatment Week 13, 3 mg, ITT Population
[3] = Post-Treatment Week 13, 3 mg, ITT Population-Excluding Duplicate Patients
[4] = Post-Treatment Week 13, 6 mg, All Randomized (includes Duplicate Patients)
[5] = Post-Treatment Week 13, 6 mg, ITT Population
[6] = Post-Treatment Week 13, 6 mg, ITT Population-Excluding Duplicate Patients
[7] = Post-Treatment Week 13, Active Combined, All Randomized (includes Duplicate Patients)
[8] = Post-Treatment Week 13, Active Combined, ITT Population-Excluding Duplicate Patients
[9] = Post-Treatment Week 13, Active Combined, ITT Population
[10] = Post-Treatment Week 14, 3 mg, All Randomized (includes Duplicate Patients)
[11] = Post-Treatment Week 14, 3 mg, ITT Population
[12] = Post-Treatment Week 14, 3 mg, ITT Population-Excluding Duplicate Patients
[13] = Post-Treatment Week 14, 6 mg, ITT Population
[14] = Post-Treatment Week 14, 6 mg, ITT Population-Excluding Duplicate Patients
[15] = Post-Treatment Week 14, Active Combined, ITT Population-Excluding Duplicate Patients
[16] = Post-Treatment Week 14, Active Combined, ITT Population
[17] = Week 1, 3 mg, ITT Population-Excluding Duplicate Patients
[18] = Week 1, 6 mg, ITT Population-Excluding Duplicate Patients
[19] = Week 1, Active Combined, ITT Population-Excluding Duplicate Patients
[20] = Week 1, Active Combined, ITT Population
[21] = Week 2, 3 mg, ITT Population-Excluding Duplicate Patients

Asn^1-Asp^2-Glu^3-Cys^4-Glu^5-Leu^6-Cys^7-Val^8-Asn^9-Val^10-Ala^11-Cys^12-Thr^13-Gly^14-Cys^15-Leu^16 (NDECELCVNVACTGCL; disulfide 4-12, 7-15) [Plecanatide, uroguanylin analogue, guanylate cyclase-C agonist; (C4:C12, C7:C15) bicycle peptide]
Difference in Proportions (adjusted) (Post-Treatment Week 13, 3 mg minus placebo, All Randomized (includes Duplicate Patients)): 0.042
Odds Ratio (adjusted) (Post-Treatment Week 13, 3 mg vs placebo, All Randomized (includes Duplicate Patients)): 0.796
CSBM Weekly Responders, n (%) [1]: 125 (26.6) n (%)
Non-Responders, n (%) [1]: 345 (73.4) n (%)
CSBM Weekly Responders, n (%) [2]: 121 (27.3) n (%)
Non-Responders, n (%) [2]: 322 (72.7) n (%)
CSBM Weekly Responders, n (%) [3]: 119 (27.4) n (%)
Non-Responders, n (%) [3]: 315 (72.6) n (%)
Difference in Proportions (adjusted) (Post-Treatment Week 13, 6 mg minus placebo, All Randomized (includes Duplicate Patients)): 0.003
Odds Ratio (adjusted) (Post-Treatment Week 13, 6 mg vs placebo, All Randomized (includes Duplicate Patients)): 0.981
CSBM Weekly Responders, n (%) [4]: 107 (22.7) n (%)
Non-Responders, n (%) [4]: 364 (77.3) n (%)
CSBM Weekly Responders, n (%) [5]: 106 (23.6) n (%)
Non-Responders, n (%) [5]: 343 (76.4) n (%)
CSBM Weekly Responders, n (%) [6]: 105 (23.7) n (%)
Non-Responders, n (%) [6]: 338 (76.3) n (%)
CSBM Weekly Responders, n (%) [7]: 232 (24.7) n (%)
Non-Responders, n (%) [7]: 709 (75.3) n (%)
Difference in Proportions (adjusted) (Post-Treatment Week 13, 3 mg minus placebo, ITT Population-Excluding Duplicate Patients): 0.045
Difference in Proportions (adjusted) (Post-Treatment Week 13, 3 mg minus placebo, ITT Population): 0.044
Odds Ratio (adjusted) (Post-Treatment Week 13, 3 mg vs placebo, ITT Population-Excluding Duplicate Patients): 0.786
Odds Ratio (adjusted) (Post-Treatment Week 13, 3 mg vs placebo, ITT Population): 0.792
Difference in Proportions (adjusted) (Post-Treatment Week 13, 6 mg minus placebo, ITT Population-Excluding Duplicate Patients): 0.008
Difference in Proportions (adjusted) (Post-Treatment Week 13, 6 mg minus placebo, ITT Population): 0.007
Odds Ratio (adjusted) (Post-Treatment Week 13, 6 mg vs placebo, ITT Population-Excluding Duplicate Patients): 0.954
Odds Ratio (adjusted) (Post-Treatment Week 13, 6 mg vs placebo, ITT Population): 0.962
CSBM Weekly Responders, n (%) [8]: 224 (25.5) n (%)
Non-Responders, n (%) [8]: 653 (74.5) n (%)
CSBM Weekly Responders, n (%) [9]: 227 (25.4) n (%)
Non-Responders, n (%) [9]: 665 (74.6) n (%)
Difference in Proportions (adjusted) (Post-Treatment Week 14, 3 mg minus placebo, All Randomized (includes Duplicate Patients)): 0.019
Odds Ratio (adjusted) (Post-Treatment Week 14, 3 mg vs placebo, All Randomized (includes Duplicate Patients)): 0.886
CSBM Weekly Responders, n (%) [10]: 95 (20.2) n (%)
Non-Responders, n (%) [10]: 375 (79.8) n (%)
CSBM Weekly Responders, n (%) [11]: 94 (21.2) n (%)
Non-Responders, n (%) [11]: 349 (78.8) n (%)
CSBM Weekly Responders, n (%) [12]: 93 (21.4) n (%)
Non-Responders, n (%) [12]: 341 (78.6) n (%)
Difference in Proportions (adjusted) (Post-Treatment Week 14, 6 mg minus placebo, All Randomized (includes Duplicate Patients)): −0.003
Odds Ratio (adjusted) (Post-Treatment Week 14, 6 mg vs placebo, All Randomized (includes Duplicate Patients)): 1.020
CSBM Weekly Responders, n (%) (Post-Treatment Week 14, 6 mg, All Randomized (includes Duplicate Patients)): 85 (18.0) n (%)
CSBM Weekly Responders, n (%) [13]: 83 (18.5) n (%)
Non-Responders, n (%) [13]: 366 (81.5) n (%)
CSBM Weekly Responders, n (%) [14]: 82 (18.5) n (%)
Non-Responders, n (%) [14]: 361 (81.5) n (%)
CSBM Weekly Responders, n (%) (Post-Treatment Week 14, Active Combined, All Randomized (includes Duplicate Patients)): 180 (19.1) n (%)
Difference in Proportions (adjusted) (Post-Treatment Week 14, 3 mg minus placebo, ITT Population-Excluding Duplicate Patients): 0.024
Difference in Proportions (adjusted) (Post-Treatment Week 14, 3 mg minus placebo, ITT Population): 0.026
Odds Ratio (adjusted) (Post-Treatment Week 14, 3 mg vs placebo, ITT Population-Excluding Duplicate Patients): 0.860
Odds Ratio (adjusted) (Post-Treatment Week 14, 3 mg vs placebo, ITT Population): 0.852
Difference in Proportions (adjusted) (Post-Treatment Week 14, 6 mg minus placebo, ITT Population-Excluding Duplicate Patients): −0.005
Difference in Proportions (adjusted) (Post-Treatment Week 14, 6 mg minus placebo, ITT Population): −0.002
Odds Ratio (adjusted) (Post-Treatment Week 14, 6 mg vs placebo, ITT Population-Excluding Duplicate Patients): 1.032
Odds Ratio (adjusted) (Post-Treatment Week 14, 6 mg vs placebo, ITT Population): 1.011
CSBM Weekly Responders, n (%) [15]: 175 (20.0) n (%)
Non-Responders, n (%) [15]: 702 (80.0) n (%)
CSBM Weekly Responders, n (%) [16]: 177 (19.8) n (%)
Non-Responders, n (%) [16]: 715 (80.2) n (%)
Difference in Proportions (adjusted) (Week 1, 3 mg minus placebo, All Randomized (includes Duplicate Patients)): 0.123
Odds Ratio (adjusted) (Week 1, 3 mg vs placebo, All Randomized (includes Duplicate Patients)): 0.468
Non-Responders, n (%) (Week 1, 3 mg, All Randomized (includes Duplicate Patients)): 342 (72.8) n (%)
CSBM Weekly Responders, n (%) (Week 1, 3 mg, ITT Population): 121 (27.3) n (%)
Non-Responders, n (%) (Week 1, 3 mg, ITT Population): 322 (72.7) n (%)
CSBM Weekly Responders, n (%) [17]: 121 (27.9) n (%)
Non-Responders, n (%) [17]: 313 (72.1) n (%)
Difference in Proportions (adjusted) (Week 1, 6 mg minus placebo, All Randomized (includes Duplicate Patients)): 0.106
Odds Ratio (adjusted) (Week 1, 6 mg vs placebo, All Randomized (includes Duplicate Patients)): 0.513
Non-Responders, n (%) (Week 1, 6 mg, All Randomized (includes Duplicate Patients)): 351 (74.5) n (%)
CSBM Weekly Responders, n (%) (Week 1, 6 mg, ITT Population): 114 (25.4) n (%)
Non-Responders, n (%) (Week 1, 6 mg, ITT Population): 335 (74.6) n (%)
CSBM Weekly Responders, n (%) [18]: 114 (25.7) n (%)
Non-Responders, n (%) [18]: 329 (74.3) n (%)
Non-Responders, n (%) (Week 1, Active Combined, All Randomized (includes Duplicate Patients)): 693 (73.6) n (%)
Difference in Proportions (adjusted) (Week 1, 3 mg minus placebo, ITT Population-Excluding Duplicate Patients): 0.123
Difference in Proportions (adjusted) (Week 1, 3 mg minus placebo, ITT Population): 0.118
Odds Ratio (adjusted) (Week 1, 3 mg vs placebo, ITT Population-Excluding Duplicate Patients): 0.477
Odds Ratio (adjusted) (Week 1, 3 mg vs placebo, ITT Population): 0.488
Difference in Proportions (adjusted) (Week 1, 6 mg minus placebo, ITT Population-Excluding Duplicate Patients): 0.102
Difference in Proportions (adjusted) (Week 1, 6 mg minus placebo, ITT Population): 0.099
Odds Ratio (adjusted) (Week 1, 6 mg vs placebo, ITT Population-Excluding Duplicate Patients): 0.533
Odds Ratio (adjusted) (Week 1, 6 mg vs placebo, ITT Population): 0.539
CSBM Weekly Responders, n (%) [19]: 235 (26.8) n (%)
Non-Responders, n (%) [19]: 642 (73.2) n (%)
CSBM Weekly Responders, n (%) [20]: 235 (26.3) n (%)
Non-Responders, n (%) [20]: 657 (73.7) n (%)
Difference in Proportions (adjusted) (Week 2, 3 mg minus placebo, All Randomized (includes Duplicate Patients)): 0.089
Odds Ratio (adjusted) (Week 2, 3 mg vs placebo, All Randomized (includes Duplicate Patients)): 0.582
CSBM Weekly Responders, n (%) (Week 2, 3 mg, All Randomized (includes Duplicate Patients)): 120 (25.5) n (%)
CSBM Weekly Responders, n (%) (Week 2, 3 mg, ITT Population): 112 (25.3) n (%)
Non-Responders, n (%) (Week 2, 3 mg, ITT Population): 331 (74.7) n (%)
CSBM Weekly Responders, n (%) [21]: 110 (25.3) n (%)
Non-Responders, n (%) [21]: 324 (74.7) n (%)
